Experimental findings from patent publication US20110230659A1, “CYCLOBUTYL PURINE DERIVATIVE, ANGIOGENESIS PROMOTING AGENT, LUMEN FORMATION PROMOTING AGENT, NEUROCYTE GROWTH PROMOTING AGENT, AND DRUG” (NATIONAL UNIVERSITY CORPORATION KAGAWA UNIVERSITY, priority 2008, published 2011) are described below.

In assay [1] the test system is ERK. Nature of the assay: ERK activation (phosphorylation) immunoblot in HUVEC. It counts as cell-based, human. Particulars: for relative value (−fold) of pERK: 100 μmol/l. As for the experimental part: (§1) First, to a HuMedia-EB2 medium (Kurabo) to which 2 v/v % inactivated fetal bovine serum (FBS) had been added, 2-Cl—C.OXT-A was added so that its concentration became 100 μmol/l. Thus, a medium was prepared. Using the medium, human umbilical vein endothelial cells (HUVEC) were cultured for predetermined periods (0, 10, 20, 30, 45, and 60 minutes).
After the culture, cells were collected. The collected cells were lysed by adding a cell lysis buffer (SDS-lysis buffer) thereto, and heat-denatured at 95° C. for 5 minutes. The solubilized protein in an amount corresponding to 5 v/v % of the heat-denatured cell lysate was subjected to electrophoresis using 10% SDS-polyacrylamide gel, whereby the solubilized protein was transferred onto a nitrocellulose membrane (Amersham Biosciences). To 20 ml of TBS-T having the following composition, skim milk (Wako) was added so that its concentration became 5%, thus preparing a blocking solution. The resultant nitrocellulose membrane was immersed in the blocking solution and shaken at room temperature for 1 hour.
Primary antibodies shown below were diluted 1000-fold by adding them to 5% bovine serum albumin (Sigma)-containing TBS-T, thus preparing a primary antibody solution. The nitrocellulose membrane after being subjected to the blocking was immersed in the primary antibody solution, and shaken at room temperature for 1 hour. The resultant nitrocellulose membrane was immersed in the TBS-T and washed by being shaken for 10 minutes. This washing operation was carried out three times in total.
Secondary antibodies shown below were diluted 20000-fold by adding them to TBS-T, thus preparing a secondary antibody solution. The nitrocellulose membrane having undergone the reaction with the primary antibodies was immersed in the secondary antibody solution, and shaken at room temperature for 1 hour. The resultant nitrocellulose membrane was immersed in the TBS-T and washed by being shaken for 10 minutes. This washing operation was carried out three times in total.
(§2) The enzymes were visualized with SuperSignal (registered trademark) West Pico Chemiluminescent Substrate (Pierce), and detected by being exposed to RX—U X-ray film (FUJIFILM Corporation). From the detected bands, the respective phosphoenzymes and total enzymes were quantified using an NIH image software. Furthermore, the relative value (−fold) of each phosphoenzyme was calculated by substituting the measured value of the phosphoenzyme into the following equation (III).
Relative value(−fold)of phosphoenzyme=(B/D)/(A/C) (III)
In the present example, the effect of 2-Cl—C.OXT-A of Example 1 and C.OXT-G of Comparative Example 2 on the activation (phosphorylation) of ERK was examined. In the present example, the amount of each enzyme was measured and the relative value (−fold) of each phosphoenzyme was calculated in the same manner as in Example 3, except that: a medium to which 2-Cl—C.OXT-A had been added so as to achieve predetermined concentrations (0, 10 and 100 μmol/l) and a medium to which 100 μmol/l C.OXT-G had been added were used; the culture period after the addition was set to 20 minutes: as the primary antibodies, only an anti-phospho ERK polyclonal antibody (Catalog No. 9101, Cell Signaling Technology) and an anti-total ERK monoclonal antibody (Catalog No. 610408, BD Transduction Laboratory) were used; as the secondary antibody for ERK, a sheep HRP-labeled anti-mouse IgG antibody (Pierce) was used; and as a secondary antibody of pERK, a sheep HRP-labeled anti-rabbit IgG antibody (Pierce) was used.
In the present example, the effect of PD98059 as an MEK inhibitor on the ERK activation (phosphorylation) by 2-Cl—C.OXT-A used in Example 1 was examined. […]

Assay [2] has as its system rat adrenal medulla-derived cell line PC12. Nature of the assay: Differentiation of PC12 cells, morphological change (micrographs). It counts as cell-based. Particulars: 2-Cl—C.OXT-A at 50 μmol/l and 100 μmol/l; sixth day of culture. As for the experimental part: In the present example, using rat adrenal medulla-derived cell line PC12, which is neurocyte model cells, obtained from the RIKEN BioResource Center, the effect of 2-Cl—C.OXT-A of Example 1 on the differentiation of PC12 cells was examined.
Three samples were prepared by adding additives shown in Table 5 below to PBS so as to achieve predetermined concentrations. Also, an evaluation medium was prepared by adding each sample or PBS to DMEM (no serum) so that its concentration became 10 v/v %. Furthermore, as a control medium, a medium containing only DMEM (no serum) was prepared. […] On the sixth day of the culture, the cells were photographed under a microscope, and the AChE activity was measured according to the Ellman's method (Ellman, G. L., et al., Biochem. Pharmacol., 7, pp. 88-95, (1961)). Specifically, the AChE activity was measured in the following manner. […] The sample solution, 75 μl of 10 mmol/l DTNB, and 3.0 ml of 0.1 mol/l phosphate buffer solution (pH 8.0) were added to a […] for absorbance measurement, and finally, 50 μl of 100 mmol/l acetylthiocholine was added to cause a reaction. The absorbance of the reaction solution at 412 nm was measured for 5 minutes from immediately after the addition of the ace tylthiocholine. From the thus-measured absorbances, the amount of increase in absorbance (C) per minute was determined. […]

The test system of assay [3] is JNK. Nature of the assay: JNK activation (phosphorylation) immunoblot in HUVEC. Type of assay: cell-based, human. Conditions: 100 μmol/l; 0 to 60 minutes. As for the experimental part:
as §1
After the culture, cells were collected. The collected cells were lysed by adding a cell lysis buffer (SDS-lysis buffer) thereto, and heat-denatured at 95° C. for 5 minutes. The solubilized protein in an amount corresponding to 5 v/v % of the heat-denatured cell lysate was subjected to electrophoresis using 10% SDS-polyacrylamide gel, whereby the solubilized protein was transferred onto a nitrocellulose membrane (Amersham Biosciences). […]
as §2

With `Nc1nc(Cl)nc2c1ncn2C1CC(CO)C1CO` (stereo not drawn) [2-Cl—C.OXT-A, 6-amino-2-chloro-9-[trans-trans-2,3-bis(hydroxymethyl)cyclobutyl]purine], the “relative value (−fold) of pERK” value in assay [1] (Example 3, 20 minutes after the addition) is given as “about 11 fold”; in assay [1] (Example 4, 20 minutes) it was “about 10 fold”. Further, the “pERK, concentration dependence” value in assay [1] (Example 4, 0, 10 and 100 μmol/l, 20 minutes) is recorded as “increased in a manner dependent on the concentration”. Also, the pERK result in assay [1] (Example 6, medium No. 2: 2-Cl—C.OXT-A 100 μmol/l, no PD98059) is “increased”. The “morphological change of PC12 cells (axon extension)” value in assay [2] is listed as “cells from which linear axons extend were observed”. For the same molecule, the “amount of pJNK” value in assay [3] was “not changed”.
